Data as given in PMC5218480 (PLoS ONE, 2017).

Test system: MV-4-11 cells
Assay: Gene expression microarray analysis (Affymetrix PrimeView) and GSEA
Format: cell-based, human
Parameters: RFU PODN (11730768_x_at) / Fold change /veh PODN (11730768_x_at) / RFU LINC00158 (11744669_a_at) / Fold change /veh LINC00158 (11744669_a_at) / RFU DUSP10 (11751237_a_at) / Fold change /veh DUSP10 (11751237_a_at) / RFU ID3 (11757404_x_at) / Fold change /veh ID3 (11757404_x_at) / RFU PLEKHG5 (11737974_s_at) / Fold change /veh PLEKHG5 (11737974_s_at) / RFU LRRC4B (11730491_at) / Fold change /veh LRRC4B (11730491_at) / RFU GIMAP4 (11747438_a_at) / Fold change /veh GIMAP4 (11747438_a_at) / RFU KRT8 (11758183_x_at) / Fold change /veh KRT8 (11758183_x_at) / RFU CNN1 (11734310_a_at) / Fold change /veh CNN1 (11734310_a_at) / RFU VPS37D (11726825_at) / Fold change /veh VPS37D (11726825_at) / RFU C10orf10 (11716522_x_at) / Fold change /veh C10orf10 (11716522_x_at) / RFU KIR2DL2 /// KIR2DL4 /// KIR2DL5A /// KIR2DL5B /// KIR2DS1 /// KIR2DS2 /// KIR2DS3 /// KIR2DS4 /// KIR3DL3 /// KIR3DL3 /// KIR3DS1 (11738374_at) / Fold change /veh KIR2DL2 /// KIR2DL4 /// KIR2DL5A /// KIR2DL5B /// KIR2DS1 /// KIR2DS2 /// KIR2DS3 /// KIR2DS4 /// KIR3DL3 /// KIR3DL3 /// KIR3DS1 (11738374_at) / RFU C1QL1 (11718748_at) / Fold change /veh C1QL1 (11718748_at) / RFU TMPRSS4 (11747572_a_at) / Fold change /veh TMPRSS4 (11747572_a_at) / RFU HAMP (11756126_x_at) / Fold change /veh HAMP (11756126_x_at) / RFU RNFT2 (11725882_a_at) / Fold change /veh RNFT2 (11725882_a_at) / RFU NR4A2 (11747474_a_at) / Fold change /veh NR4A2 (11747474_a_at) / RFU ABCC12 (11746883_a_at) / Fold change /veh ABCC12 (11746883_a_at) / RFU TMEM136 (11760407_x_at) / Fold change /veh TMEM136 (11760407_x_at) / RFU CLDN22 /// WWC2 (11732394_at) / Fold change /veh CLDN22 /// WWC2 (11732394_at) / RFU HLA-DPB1 (11760878_x_at) / Fold change /veh HLA-DPB1 (11760878_x_at) / RFU SPINT1 (11716480_a_at) / Fold change /veh SPINT1 (11716480_a_at) / RFU GAP43 (11754022_s_at) / Fold change /veh GAP43 (11754022_s_at) / RFU A4GNT (11735810_at) / Fold change /veh A4GNT (11735810_at) / RFU PRB3 (11715151_x_at) / Fold change /veh PRB3 (11715151_x_at) / RFU TUBB4B (11761932_at) / Fold change /veh TUBB4B (11761932_at) / RFU CAPN14 (11732068_a_at) / Fold change /veh CAPN14 (11732068_a_at) / RFU TMCC2 (11721928_a_at) / Fold change /veh TMCC2 (11721928_a_at) / RFU IRGQ (11745062_a_at) / Fold change /veh IRGQ (11745062_a_at) / RFU FAM174B (11720279_a_at) / Fold change /veh FAM174B (11720279_a_at) / RFU TMPRSS4 (11748680_a_at) / Fold change /veh TMPRSS4 (11748680_a_at) / RFU FAM212B (11763350_a_at) / Fold change /veh FAM212B (11763350_a_at) / RFU PLEKHG5 (11743358_a_at) / Fold change /veh PLEKHG5 (11743358_a_at) / RFU ZSCAN30 (11745921_a_at) / Fold change /veh ZSCAN30 (11745921_a_at) / RFU CMKLR1 (11741424_a_at) / Fold change /veh CMKLR1 (11741424_a_at) / RFU LOC101060620 /// MAPK8IP1 (11723275_at) / Fold change /veh LOC101060620 /// MAPK8IP1 (11723275_at) / RFU SPTSSB (11747773_x_at) / Fold change /veh SPTSSB (11747773_x_at) / RFU PRSS12 (11739890_at) / Fold change /veh PRSS12 (11739890_at) / RFU BIN1 (11741810_x_at) / Fold change /veh BIN1 (11741810_x_at) / RFU WNT11 (11732464_a_at) / Fold change /veh WNT11 (11732464_a_at) / RFU C10orf10 (11716521_a_at) / Fold change /veh C10orf10 (11716521_a_at) / RFU C5orf56 (11738089_at) / Fold change /veh C5orf56 (11738089_at) / RFU CYB561 (11721691_x_at) / Fold change /veh CYB561 (11721691_x_at) / RFU ANKRD19P (11752326_a_at) / Fold change /veh ANKRD19P (11752326_a_at) / RFU OR2T12 /// OR2T33 /// OR2T8 (11738714_s_at) / Fold change /veh OR2T12 /// OR2T33 /// OR2T8 (11738714_s_at) / RFU VCAN (11748164_a_at) / Fold change /veh VCAN (11748164_a_at) / RFU JSRP1 (11732532_at) / Fold change /veh JSRP1 (11732532_at) / RFU KRTAP10-11 (11738290_x_at) / Fold change /veh KRTAP10-11 (11738290_x_at) / RFU MYO3A (11730013_a_at) / Fold change /veh MYO3A (11730013_a_at) / RFU EBF3 (11725865_a_at) / Fold change /veh EBF3 (11725865_a_at) / RFU CAMK2N1 (11719241_x_at) / Fold change /veh CAMK2N1 (11719241_x_at) / RFU C5orf56 (11738088_a_at) / Fold change /veh C5orf56 (11738088_a_at) / RFU OLFML3 (11715873_a_at) / Fold change /veh OLFML3 (11715873_a_at) / RFU LOC100653217 /// NTM (11731650_a_at) / Fold change /veh LOC100653217 /// NTM (11731650_a_at) / RFU MAPK11 (11762145_a_at) / Fold change /veh MAPK11 (11762145_a_at) / RFU FIZ1 (11724087_x_at) / Fold change /veh FIZ1 (11724087_x_at) / RFU OASL (11726364_x_at) / Fold change /veh OASL (11726364_x_at) / RFU SOX15 (11748057_x_at) / Fold change /veh SOX15 (11748057_x_at) / RFU CD79A (11719716_a_at) / Fold change /veh CD79A (11719716_a_at) / RFU HIST1H1D (11736915_at) / Fold change /veh HIST1H1D (11736915_at) / RFU CASKIN2 (11723855_a_at) / Fold change /veh CASKIN2 (11723855_a_at) / RFU LOC730098 (11760151_x_at) / Fold change /veh LOC730098 (11760151_x_at) / RFU OR4N2 (11742367_at) / Fold change /veh OR4N2 (11742367_at) / RFU PRRT2 (11749266_a_at) / Fold change /veh PRRT2 (11749266_a_at) / RFU SNX32 (11753110_a_at) / Fold change /veh SNX32 (11753110_a_at) / RFU CDHR5 (11726645_a_at) / Fold change /veh CDHR5 (11726645_a_at) / RFU RCAN1 (11760418_a_at) / Fold change /veh RCAN1 (11760418_a_at) / RFU FAM167A (11723789_a_at) / Fold change /veh FAM167A (11723789_a_at) / RFU FAM26E (11764081_at) / Fold change /veh FAM26E (11764081_at) / RFU ISYNA1 (11749810_s_at) / Fold change /veh ISYNA1 (11749810_s_at) / RFU ACY1 (11761880_at) / Fold change /veh ACY1 (11761880_at) / RFU 11764098_at / Fold change /veh 11764098_at / RFU SAMD14 (11745864_x_at) / Fold change /veh SAMD14 (11745864_x_at) / RFU NPB (11741838_a_at) / Fold change /veh NPB (11741838_a_at) / RFU TMPRSS6 (11731388_a_at) / Fold change /veh TMPRSS6 (11731388_a_at) / RFU KRTAP10-2 (11738614_at) / Fold change /veh KRTAP10-2 (11738614_at) / RFU ARHGAP8 /// PRR5-ARHGAP8 (11727945_x_at) / Fold change /veh ARHGAP8 /// PRR5-ARHGAP8 (11727945_x_at) / RFU KRTAP5-7 /// NADSYN1 (11734609_at) / Fold change /veh KRTAP5-7 /// NADSYN1 (11734609_at) / RFU RASL12 (11751679_a_at) / Fold change /veh RASL12 (11751679_a_at) / RFU CDKN2B (11736163_a_at) / Fold change /veh CDKN2B (11736163_a_at) / RFU PRF1 (11729649_at) / Fold change /veh PRF1 (11729649_at) / RFU, ZNF638 /// ZNF638-IT1 / Fold change vs veh, ZNF638 /// ZNF638-IT1 / RFU, PANK3 / Fold change vs veh, PANK3 / RFU, SH3YL1 / Fold change vs veh, SH3YL1 / RFU, ZEB2 / Fold change vs veh, ZEB2 / RFU, NRIP1 / Fold change vs veh, NRIP1 / RFU, PTTG1IP / Fold change vs veh, PTTG1IP / RFU, CAPN2 / Fold change vs veh, CAPN2 / RFU, MED14 / Fold change vs veh, MED14 / RFU, SNORA58 / Fold change vs veh, SNORA58 / RFU, C1orf63 / Fold change vs veh, C1orf63 / RFU, LRRFIP1 / Fold change vs veh, LRRFIP1 / RFU, NDUFAF7 / Fold change vs veh, NDUFAF7 / RFU, SLC12A2 / Fold change vs veh, SLC12A2 / RFU, IBTK / Fold change vs veh, IBTK / RFU, ESF1 / Fold change vs veh, ESF1 / Fold change vs veh, TMEM50B / RFU, TAOK1 / Fold change vs veh, TAOK1 / RFU, ACBD3 / Fold change vs veh, ACBD3 / RFU, TMA16 / Fold change vs veh, TMA16 / RFU, RWDD3 / Fold change vs veh, RWDD3 / RFU, BCAT1 / Fold change vs veh, BCAT1 / RFU, EDEM3 / Fold change vs veh, EDEM3 / RFU, TMEM33 / Fold change vs veh, TMEM33 / RFU, WDR75 / Fold change vs veh, WDR75 / RFU, AHCTF1 / Fold change vs veh, AHCTF1 / RFU, TFRC / Fold change vs veh, TFRC / RFU, ZDHHC17 / Fold change vs veh, ZDHHC17 / RFU, NOM1 / Fold change vs veh, NOM1 / RFU, ARL8B / Fold change vs veh, ARL8B / RFU, ZBTB11 / Fold change vs veh, ZBTB11 / RFU, TAMM41 / Fold change vs veh, TAMM41 / RFU, KIAA1704 /// LOC100996395 / Fold change vs veh, KIAA1704 /// LOC100996395 / RFU, ING1 / Fold change vs veh, ING1 / RFU, TRMT61B / Fold change vs veh, TRMT61B / RFU, FUBP3 / Fold change vs veh, FUBP3 / RFU, TP53 / Fold change vs veh, TP53 / RFU, TNKS2 / Fold change vs veh, TNKS2 / RFU, ZFP14 / Fold change vs veh, ZFP14 / RFU, ACTR2 / Fold change vs veh, ACTR2 / RFU, PPP3R1 / Fold change vs veh, PPP3R1 / RFU, PIK3R1 / Fold change vs veh, PIK3R1 / RFU, HNRNPA1 / Fold change vs veh, HNRNPA1 / RFU, RNF170 / Fold change vs veh, RNF170 / RFU, ZNF28 / Fold change vs veh, ZNF28 / RFU, RNGTT / Fold change vs veh, RNGTT / RFU, OGT / Fold change vs veh, OGT / RFU, BRD1 / Fold change vs veh, BRD1 / RFU, MARS / Fold change vs veh, MARS / RFU, ZNF655 / Fold change vs veh, ZNF655 / RFU, FAHD1 / Fold change vs veh, FAHD1 / RFU, BDP1 / Fold change vs veh, BDP1 / RFU, LRRCC1 / Fold change vs veh, LRRCC1 / RFU, ARID1A / Fold change vs veh, ARID1A / RFU, ZNF146 / Fold change vs veh, ZNF146 / RFU, ZNF330 / Fold change vs veh, ZNF330 / RFU, GPN3 / Fold change vs veh, GPN3 / RFU, C9orf123 / Fold change vs veh, C9orf123 / RFU, N4BP2L2 / Fold change vs veh, N4BP2L2 / RFU, ARFIP1 / Fold change vs veh, ARFIP1 / RFU, FAM179B / Fold change vs veh, FAM179B / RFU, BCL10 / Fold change vs veh, BCL10 / RFU, UHRF1BP1L / Fold change vs veh, UHRF1BP1L / RFU, BET1 / Fold change vs veh, BET1 / RFU, CNOT2 / Fold change vs veh, CNOT2 / RFU, ZNF268 / Fold change vs veh, ZNF268 / Fold change vs veh, ZNF507 / RFU, DGCR2 / Fold change vs veh, DGCR2 / RFU, WDSUB1 / Fold change vs veh, WDSUB1 / Fold change vs veh, HSP90B1 /// MIR3652 / RFU, ADSS / Fold change vs veh, ADSS / RFU, GK / Fold change vs veh, GK / RFU, ZNF148 / Fold change vs veh, ZNF148 / RFU, TAF9 / Fold change vs veh, TAF9 / RFU, SLC1A5 / Fold change vs veh, SLC1A5 / RFU, SLMO2 / Fold change vs veh, SLMO2 / RFU, ABCC4 / Fold change vs veh, ABCC4 / RFU, LOC101060439 /// RAP1B / Fold change vs veh, LOC101060439 /// RAP1B / RFU, RFX7 / Fold change vs veh, RFX7 / RFU, GTPBP10 / Fold change vs veh, GTPBP10 / RFU, CNEP1R1 / Fold change vs veh, CNEP1R1 / RFU, BIVM-ERCC5 /// ERCC5 / Fold change vs veh, BIVM-ERCC5 /// ERCC5 / RFU, ILF3 / Fold change vs veh, ILF3 / RFU 11762660_at / Fold change /veh 11762660_at / RFU VCAN (11757783_s_at) / Fold change /veh VCAN (11757783_s_at) / RFU DDX43 (11728927_at) / Fold change /veh DDX43 (11728927_at) / RFU KRT8 (11758188_x_at) / Fold change /veh KRT8 (11758188_x_at) / RFU NKD1 (11759106_at) / Fold change /veh NKD1 (11759106_at) / RFU SRD5A1 (11742802_a_at) / Fold change /veh SRD5A1 (11742802_a_at) / RFU TPSAB1 /// TPSB2 (11721975_s_at) / Fold change /veh TPSAB1 /// TPSB2 (11721975_s_at) / RFU GSTM3 (11746129_a_at) / Fold change /veh GSTM3 (11746129_a_at) / RFU IL23R (11737362_x_at) / Fold change /veh IL23R (11737362_x_at) / RFU TMEM51 (11727254_a_at) / Fold change /veh TMEM51 (11727254_a_at) / RFU PIWIL2 (11732686_x_at) / Fold change /veh PIWIL2 (11732686_x_at) / RFU ORM1 (11744905_x_at) / Fold change /veh ORM1 (11744905_x_at) / RFU CCDC152 (11743942_at) / Fold change /veh CCDC152 (11743942_at) / RFU ECM1 (11717891_a_at) / Fold change /veh ECM1 (11717891_a_at) / RFU IL23R (11748794_a_at) / Fold change /veh IL23R (11748794_a_at) / RFU TNFAIP8L3 (11732012_x_at) / Fold change /veh TNFAIP8L3 (11732012_x_at) / RFU MBOAT4 (11741988_at) / Fold change /veh MBOAT4 (11741988_at) / RFU 11764193_at / Fold change /veh 11764193_at / RFU TMEM53 (11763286_at) / Fold change /veh TMEM53 (11763286_at) / RFU MAGEB2 (11727129_at) / Fold change /veh MAGEB2 (11727129_at) / RFU TMEM200A (11744735_a_at) / Fold change /veh TMEM200A (11744735_a_at) / RFU CCDC152 (11751479_a_at) / Fold change /veh CCDC152 (11751479_a_at) / RFU FAM211A (11726209_a_at) / Fold change /veh FAM211A (11726209_a_at) / RFU RGS16 (11746705_a_at) / Fold change /veh RGS16 (11746705_a_at) / RFU VCAN (11755009_s_at) / Fold change /veh VCAN (11755009_s_at) / RFU RHOB (11743442_s_at) / Fold change /veh RHOB (11743442_s_at) / RFU RGS16 (11720943_a_at) / Fold change /veh RGS16 (11720943_a_at) / RFU RGS16 (11720944_at) / Fold change /veh RGS16 (11720944_at) / RFU, VPS4B / Fold change vs veh, VPS4B / RFU, CREB1 / Fold change vs veh, CREB1 / RFU, DNAJC13 / Fold change vs veh, DNAJC13 / RFU, GNAQ / Fold change vs veh, GNAQ / RFU, CDK5R1 / Fold change vs veh, CDK5R1 / RFU, ZRANB3 / Fold change vs veh, ZRANB3 / RFU, CUL4A / Fold change vs veh, CUL4A / RFU, CCNY / Fold change vs veh, CCNY / RFU, UFL1 / Fold change vs veh, UFL1 / RFU, COG3 / Fold change vs veh, COG3 / RFU, DIAPH2 / Fold change vs veh, DIAPH2 / RFU, SKA2 / Fold change vs veh, SKA2 / RFU, AFF3 / Fold change vs veh, AFF3 / RFU, LMF1 / Fold change vs veh, LMF1 / RFU, IPO11 / Fold change vs veh, IPO11 / RFU, DFFB / Fold change vs veh, DFFB / RFU, FOXP1 / Fold change vs veh, FOXP1 / RFU, CARD8 / Fold change vs veh, CARD8 / RFU, STRN3 / Fold change vs veh, STRN3 / RFU, ADK / Fold change vs veh, ADK / RFU, RASSF2 / Fold change vs veh, RASSF2 / RFU, WIPF1 / Fold change vs veh, WIPF1 / RFU, LARP1B / Fold change vs veh, LARP1B / RFU, RASA1 / Fold change vs veh, RASA1 / RFU, RB1 / Fold change vs veh, RB1 / RFU, PPFIA1 / Fold change vs veh, PPFIA1 / RFU, MAT2A / Fold change vs veh, MAT2A / RFU, CCT5 / Fold change vs veh, CCT5 / RFU, WDR92 / Fold change vs veh, WDR92 / RFU, CUX1 / Fold change vs veh, CUX1 / RFU, TTC7A / Fold change vs veh, TTC7A / RFU, TMEM135 / Fold change vs veh, TMEM135 / RFU, DEPTOR / Fold change vs veh, DEPTOR / RFU, CPM / Fold change vs veh, CPM / RFU, DNAJB6 / Fold change vs veh, DNAJB6 / RFU, CACNA2D3 / Fold change vs veh, CACNA2D3 / RFU, DTX4 / Fold change vs veh, DTX4 / RFU, TFCP2 / Fold change vs veh, TFCP2 / RFU, GMCL1 /// GMCL1P1 / Fold change vs veh, GMCL1 /// GMCL1P1 / RFU, AEBP2 / Fold change vs veh, AEBP2 / RFU, SNHG1 /// SNORD22 /// SNORD25 /// SNORD26 /// SNORD27 /// SNORD28 /// SNORD29 /// SNORD31 / Fold change vs veh, SNHG1 /// SNORD22 /// SNORD25 /// SNORD26 /// SNORD27 /// SNORD28 /// SNORD29 /// SNORD31 / Fold change (Aza/veh), C12orf56 (ProbeSet 11735607_a_at) / Fold change (ACY-1035/veh), C12orf56 (ProbeSet 11735607_a_at) / Fold change (Aza/veh), FGFR1OP (ProbeSet 11751329_s_at) / Fold change (ACY-1035/veh), FGFR1OP (ProbeSet 11751329_s_at) / Fold change (Aza/veh), VPS36 (ProbeSet 11739960_a_at) / Fold change (ACY-1035/veh), VPS36 (ProbeSet 11739960_a_at) / RFU SYPL1 (11715823_x_at) / Fold change /veh SYPL1 (11715823_x_at) / RFU IGFBP7 (11715501_s_at) / Fold change /veh IGFBP7 (11715501_s_at) / RFU REEP3 (11722064_at) / Fold change /veh REEP3 (11722064_at) / RFU IGLL1 (11728026_x_at) / Fold change /veh IGLL1 (11728026_x_at): dose or concentration left out as unconfirmed
Conditions: ProbeSet 11725901_x_at; LIST B

Nc1ccc(-c2cccs2)cc1NC(=O)c1ccc2c(c1)cc(C1CC1)n2CCN1CCOCC1 [ACY-1035]
Fold change vs veh, RWDD3: 0.90
